Measurements published in article PMC6304418, “A Novel Compound Targeting Protease Receptor 1 Activators for the Treatment of Glioblastoma” (Frontiers in Neurology, 2018).
Entries after “also recorded” stand apart in the source; their conditions may differ. Where a SMILES comes first, the peptide text is derived from it. The star is where a group is joined. Tos = Cc1ccc(S(=O)(=O)*)cc1; CH2Cl = ClC*

Key:
glioma cells (CNS-1) = assay: Wound healing (wound-closure) assay; type: cell-based, rat; details: SIXAC 1 μM, 4 h, FCS-free medium; control 10.14 ± 0.67%; p = 0.02
Procedure: The effect of SIXAC on the coordinated movement of the glioma cells was evaluated using a wound healing assay. The cells were seeded in 24-well plates at a density of 5 × 10^4cells/well. Cells were cultures in FCS-free medium for 24 h. A wound was established by scraping using 10 μl pipette tip. Cells were washed twice with warm PBS and fresh FCS-free medium containing 1 μM SIXAC was added. Image acquisition of wound gap closure (%) was carried out following 4 h of incubation using a Nikon Eclipse microscope. Images were analyzed using Fiji software ([37]).

U87 glioma cells = assay: U87 glioma cell proliferation (XTT); type: cell-based, human; details: 72 h
Procedure: (§1) CNS-1, C6, and U87 rat and human glioma cells were grown in Dulbecco's modified Eagle's medium (DMEM; Bet Haemek, Biological Industries, Israel) supplemented with 10% fetal bovine serum (Bet Haemek, Biological Industries, Israel) and 1% penicillin and streptomycin in a 5% CO2-humidified atmosphere.
(§2) Cell proliferation was evaluated using a 2.3-Bis-(2-methoxy-4-nitro-5-sulfophenyl)-2H-tetrazolium-5-carboxyanilide salt (XTT)-based cell proliferation assay kit (Bet Haemek, Biological Industries, Israel). U87 cells were seeded in 96-well plates (5 × 10^3 cells/well) and incubated for 24 h. The medium was then removed, the tested molecules (10^−13-10^−4 M final concentration) were added in FCS-free medium and introduced to the cells for 72 h. After choosing SIXAC as the leading molecule, it was tested in a similar way in CNS-1 cells (SIXAC 1 μM final concentration). XTT solution (50 μl) was added to each well and incubated for 3 h at 37°C. The optical density (OD) of each well was recorded at 450 and 630 nm in a microplate reader (Infinite M200, Tecan, Durham, NC, USA). Cell viability was expressed as the percentage (ODtest–ODblank)/(ODcontrol–ODblank), where ODtest is the optical density of cells exposed to SIXAC treatment, ODcontrol is the optical density of the control sample, and ODblank is the optical density of wells without glioma cells.

CNS-1 glioma cells = assay: CNS-1 glioma cell proliferation (XTT); type: cell-based, rat; details: SIXAC 1 μM, 72 h, FCS-free medium, p < 0.03
Procedure: as §1, §2

[1] = SIXAC stability over time at 37°C, measured by its inhibition of thrombin; type: physicochemical; details: 400 μM SIXAC incubated and sampled, read-out inhibition of 0.05 U/ml thrombin
Procedure: Thrombin activity was assessed using a fluorogenic thrombin substrate (Bachem I-1560, excitation 360 nm; emission 465 nm). As previously described ([19], [36]), the reactions were carried out in a black 96-well microplate. All reactions were performed in Tris buffer (in mM: 150 NaCl, 1 CaCl2, 50 Tris-HCl: pH 8.0) and in the presence of endopeptidase inhibitors (0.1 mg/ml, bestatin hydrochloride—B8385, Sigma; 200 μM prolylendopeptidase inhibitor II, 537011, Merck Millipore) to eliminate the effect of widely abundant CNS endopeptidases on the assay. Known bovine thrombin concentrations (T-4648, Sigma) were used to create a calibration curve for each experiment. IC50 for inhibition of C6 glioma-generated thrombin activity by the molecules was measured in the medium secreted from the cells as described before ([19]). Briefly, C6 cells were seeded (5 × 10^4 cells/ml, 200 μl per well) and allowed to attach the well bottom for 24 h. […] The substrate was added and fluorescence was measured. […] Inhibition of commercial thrombin by SIXAC was measured by applying increasing concentrations of SIXAC (10^−12-10^−5M final concentration) to wells containing 0.05U/ml thrombin (final concentration). […] The sampled SIXAC was added to a constant concentration of thrombin (0.05 U/ml) and thrombin activity was measured. […] All other measures were calculated as a portion of the total activity.

[2] = test system: thrombin mediated PAR1 activation (pERK/ERK) in CNS-1 cells; assay: ERK activation (pERK/ERK, Western blot) in CNS-1 cells; type: cell-based, rat; details: thrombin 1 U/ml + SIXAC 100 nM, 10 min; n = 3; thrombin alone 2.09 ± 0.28, p < 0.03
Procedure: Cells were seeded (1 × 10^6 cells/75 cm^2 flask) and incubated for 24 h. Then the medium was replaced by FCS-free medium for another 24 h. The cells were treated for 10 min with thrombin (1 U/ml), SIXAC (100 nM), a combination of thrombin and SIXAC or a FCS-free medium which was used as a control (n = 3 for each treatment). The cells were washed and lysed in RIPA buffer (containing in mM: 50 TRIS HCl pH 8, 150 NaCl, 1% NP-40, 0.5% sodium deoxycholate, and 0.1% SDS), a protease inhibitor cocktail (Merck Millipore 539134, 1:100), 0.1 mM sodium orthovanadate and 2 mM PMSF. The cells were scraped, collected and centrifuged (16,000g × 20 min) at 4°C. The supernatants were collected, and protein concentration was determined by means of a bicinchoninic acid (BCA) assay. Each sample (20 μg) was separated by SDS-polyacrylamide gel electrophoresis. The proteins were transferred onto nitrocellulose membranes. Membranes were incubated with mouse anti-phosphorylated Extracellular signal-Regulated Kinase (pERK) antibody (1:10,000, M8159, Sigma), for 1.5 h at room temperature (RT) and washed with Tris-buffered saline and 0.1% Tween 20 (TBST). Membranes were then incubated at RT with horseradish peroxidase-conjugated goat anti-mouse antibody (1:10,000, Jackson Immunoresearch Laboratories). […] Protein bands were detected by a peroxidase-based enhanced chemiluminescence (ECL) method. […]

CNS-1 colonies = assay: Colony formation assay; type: cell-based, rat; details: SIXAC 1 μM, 5 days; colonies > 1 mm; control 13.9 ± 1.09; p = 0.033
Procedure: The cells were seeded in 6-well plates at a density of 100 cells/well. After 24 h, fresh medium with 1 μM SIXAC was added. Cells were incubated for 5 days, until colonies were formed. Cells were washed with PBS, stained with […] crystal violet (Sigma-Aldrich, C0075) in absolute ethanol for 20 min and then washed again with PBS and dried for 24 h. Colonies that were bigger than 1 mm were counted using Fiji software ([37]–[40]).

Cc1ccc(S(=O)(=O)N[C@@H](C)C(=O)N[C@H](C(=O)N[C@@H](CC(C)C)C(=O)N[C@@H](CC(=O)O)C(=O)N2CCC[C@H]2C(=O)N[C@@H](CCCNC(=N)N)C(=O)CCl)[C@@H](C)O)cc1 [SIXAC] (Tos-ATLDPR-CH2Cl)
wound-closure percentage (glioma cells (CNS-1)): 7.27 ± 0.68% | U87 proliferation rate ("inhibit proliferation at a rate of") (U87 glioma cells; 10^−5M, FCS-free medium, mean ± SEM, 3AACK vs. 6AACK p < 0.035): 0.2 ± 0.34 | U87 proliferation inhibition, ranking among the molecules (U87 glioma cells; 10^−13-10^−4 M, Figure 1D): found to inhibit the U87 proliferation rate the most | CNS-1 cell proliferation rate (CNS-1 glioma cells): significantly decrease proliferation rate (p < 0.03); also recorded: significantly decrease the CNS-1 cell proliferation rate | stability: time for which SIXAC was stable and significantly inhibited thrombin [1]: ≥ 18 days | pERK/ERK ratio, thrombin with SIXAC [2]: 0.99 ± 0.21 | number of formed colonies (CNS-1 colonies): 10.5 ± 1.06
